pEC50: −log10 of the molar value.
Key:
[1] = molecular target: Human STING (hSTING, residues 155-341, wild-type sequence) (Homo sapiens, UniProt Q86WV6, H232R); experiment: hSTING binding by differential scanning fluorimetry (DSF); conditions: 100 μM test compound, 3 μM target protein, at least two Tm measurements averaged
Method: 3) 2 μl of this protein-dye-mixture (25×SYPRO Orange and 15 μM Protein) was added to 8 μl compound solution. Final volume was 10 μL. 4) Certain well positions were used as negative control. 5) The plates were prepared for duplicate measurement and centrifuged for 2 min at 1000 g. 6) In the measurement, 160 cycles of 0.5° C. were used (temperature ramp 15 s/cycle, 15° C. to 95° C.). Data analysis: The dissociation curves were processed in Bio-Rad CFX Manager. Peak type was set to “negative. At least two Tm measurements were averaged.

[2] = molecular target: T1, human STING protein in THP1-Blue ISG cells (Homo sapiens, UniProt Q86WV6, G230A/H232R/R293Q/R71H); experiment: In vitro cytokine induction, THP1-Blue ISG reporter cell assay (IRF-inducible SEAP); assay type: cell-based; conditions: 24 hours incubation, SEAP OD at 620 nm
T1 construct: endogenous STING levels form the parental, unmodified THP1-Blue ISG cell lines; endogenous in cells; host or cells: THP1-Blue ISG cells
T1 sequence (Q86WV6 whole entry R71H/G230A/H232R/R293Q): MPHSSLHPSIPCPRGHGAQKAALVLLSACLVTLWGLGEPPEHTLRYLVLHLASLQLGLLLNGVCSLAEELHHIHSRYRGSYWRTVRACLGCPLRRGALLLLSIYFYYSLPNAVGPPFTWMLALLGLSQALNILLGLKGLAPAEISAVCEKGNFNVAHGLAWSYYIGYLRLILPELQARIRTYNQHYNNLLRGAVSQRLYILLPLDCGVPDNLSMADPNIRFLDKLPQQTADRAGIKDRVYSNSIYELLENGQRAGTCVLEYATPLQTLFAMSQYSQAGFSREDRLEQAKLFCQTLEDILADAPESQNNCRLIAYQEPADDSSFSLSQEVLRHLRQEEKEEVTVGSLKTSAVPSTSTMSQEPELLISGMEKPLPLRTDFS
Source text: Activation of the STING protein expressed in THP1 cells results in an increase of interferon production. By the stable integration of an interferon regulatory factor (IRF)-inducible SEAP (secreted embryonic alkaline phosphatase) reporter construct the functional interferon signaling pathway can be monitored. Using Invivogen's QUANTI-Blue™ colorimetric enzyme assay and a suitable optical density (OD) reader the activity of SEAP can be detected and quantified. This technique could be used to characterize pharmacological modification of the STING protein.
Measurements of SEAP activity were performed in THP1-Blue ISG cells stably expressing the human STING protein and the IRF-inducible SEAP reporter construct. Cells were cultivated for expansion in RPMI1640 medium with 10% fetal calf serum, 50 μg/ml Penicillin-Streptomycin, 100 μg/ml Zeocin, and 100 μg/ml Normocin in a 37°, 95% humidity and 5% CO2 incubator. Assay-ready cells were stored as frozen stocks.
In preparation for the assay, the cells were thawed in Zeocin-/Normocin-free medium and were distributed into the assay plates with a density of 15000 cells/15 μL per well. […]
At the day of the assay, 75 μl per well of Quanti-Blue reagent was added to all wells of the plate and the plate was incubated another 30 minutes at 37° C. The OD at 620 nm was measured on the EnVision reader (PerkinElmer). […]

hSTING WT = molecular target: T2, hSTING WT (Homo sapiens, UniProt Q86WV6, H232R); experiment: THP1-Blue ISG hSTING KO reporter cells re-expressing hSTING WT; assay type: cell-based; conditions: WT variant cell line
T2 construct: expressed in transfected cells; host or cells: THP1-Blue ISG hSTING KO clone, retroviral MSCV-ires-GFP-Blasti
T2 sequence (Q86WV6 whole entry H232R): as the sequence (Q86WV6 whole entry R71H/G230A/H232R/R293Q) above, with H71R, A230G, Q293R counted along it
Source text: (§1) Several single nucleotide polymorphisms have been identified in the human STING gene that may affect the response to cyclic dinucleotides. To determine the activity of compounds of the invention, THP1-Blue ISG reporter cell lines expressing the different human STING variants have been generated. To do so, the endogenous human STING was first deleted using the CRISPR/CAS9 system: THP1-Blue ISG cells were electroporated with ALL-IN-ONE CRISPR plasmids targeting the STING gene (purchased from Sigma encoding the gRNA and GFP as a reporter gene for successful transduction). GFP positive cells then were sorted 24 h post transfection and expanded. Cells were then dispersed in semisolid methocel medium to allow single cell clone isolations. Clones were then screened for cGAMP responsiveness using the Quanti-blue reporter assay. Non-responsive clones were subsequently analysed for STING loss by western blotting and sequencing of the STING locus.
(§2) For the overexpression of the human STING variants, a confirmed THP1-Blue ISG hSTING KO clone was transduced with individual retroviral plasmids (MSCV-ires-GFP-Blasti) encoding the allelic variants of hSTING (WT, HAQ, R232H, AQ and R293Q), respectively. Transduced cells were sorted for different levels of GFP fluorescence and STING allele expression was analysed by western blot.

hSTING HAQ = molecular target: T3, hSTING HAQ (Homo sapiens, UniProt Q86WV6, G230A/H232R/R293Q/R71H); experiment: THP1-Blue ISG hSTING KO reporter cells re-expressing hSTING HAQ; assay type: cell-based; conditions: HAQ variant cell line
T3 construct: expressed in transfected cells; host or cells: THP1-Blue ISG hSTING KO clone, retroviral MSCV-ires-GFP-Blasti
T3 sequence (Q86WV6 whole entry R71H/G230A/H232R/R293Q): as the sequence (Q86WV6 whole entry R71H/G230A/H232R/R293Q) above
Source text: as §1, §2

hSTING R232H = molecular target: T4, hSTING R232H (Homo sapiens, UniProt Q86WV6); experiment: THP1-Blue ISG hSTING KO reporter cells re-expressing hSTING R232H; assay type: cell-based; conditions: R232H variant cell line
T4 construct: expressed in transfected cells; host or cells: THP1-Blue ISG hSTING KO clone, retroviral MSCV-ires-GFP-Blasti
T4 sequence (Q86WV6 whole entry, stated change not applied): as the sequence (Q86WV6 whole entry R71H/G230A/H232R/R293Q) above, with H71R, A230G, R232H, Q293R counted along it
Source text: as §1, §2

hSTING AQ = molecular target: T5, hSTING AQ (Homo sapiens, UniProt Q86WV6, G230A/H232R/R293Q); experiment: THP1-Blue ISG hSTING KO reporter cells re-expressing hSTING AQ; assay type: cell-based; conditions: AQ variant cell line
T5 construct: expressed in transfected cells; host or cells: THP1-Blue ISG hSTING KO clone, retroviral MSCV-ires-GFP-Blasti
T5 sequence (Q86WV6 whole entry G230A/H232R/R293Q): as the sequence (Q86WV6 whole entry R71H/G230A/H232R/R293Q) above, with H71R counted along it
Source text: as §1, §2

hSTING R293Q = molecular target: T6, hSTING R293Q (Homo sapiens, UniProt Q86WV6, H232R/R293Q); experiment: THP1-Blue ISG hSTING KO reporter cells re-expressing hSTING R293Q; assay type: cell-based; conditions: R293Q variant cell line
T6 construct: expressed in transfected cells; host or cells: THP1-Blue ISG hSTING KO clone, retroviral MSCV-ires-GFP-Blasti
T6 sequence (Q86WV6 whole entry H232R/R293Q): as the sequence (Q86WV6 whole entry R71H/G230A/H232R/R293Q) above, with H71R, A230G counted along it
Source text: as §1, §2

Sequence of Human STING (hSTING, residues 155-341, wild-type sequence) (Q86WV6 155-341 H232R limits assumed): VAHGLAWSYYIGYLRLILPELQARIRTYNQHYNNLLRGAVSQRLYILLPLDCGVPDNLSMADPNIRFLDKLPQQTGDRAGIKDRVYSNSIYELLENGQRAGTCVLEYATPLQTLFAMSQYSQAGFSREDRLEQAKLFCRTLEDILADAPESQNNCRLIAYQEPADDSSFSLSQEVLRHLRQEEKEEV

| ΔTm at 100 µM ([1]; read-out: hSTING Tm shift) [°C] | pEC50 [2] | pEC50 (hSTING WT) | pEC50 (hSTING HAQ) | pEC50 (hSTING R232H) | pEC50 (hSTING AQ) | pEC50 (hSTING R293Q) | hSTING Tm shift [1] [°C] | Compound |
| --- | --- | --- | --- | --- | --- | --- | --- | --- |
| 28.8 | 6.60 | ≥ 6.00 | ≥ 6.00 | ≥ 6.00 | ≥ 6.00 | ≥ 6.00 |  | Nc1ncnc2c1ncn2[C@@H]1O[C@]23CO[C@@H]1[C@@H]2OP(=O)(S)OC[C@H]1O[C@@H](n2cnc4cncnc42)[C@H](F)[C@@H]1OP(=O)(S)OC3 (single isomer, unassigned) [Example 1.1, Cyclic (2′-F-2′-deoxynebularine-(3′→5′)-phosphorothioate-LNA-adenosine-(3′→5′)-phosphorothioate)] |
|  | 6.80 |  |  |  |  |  | 19.8 | Nc1ncnc2c1ncn2[C@@H]1O[C@]23CO[C@@H]1[C@@H]2OP(=O)(S)OC[C@H]1O[C@@H](n2cnc4cncnc42)[C@H](F)[C@@H]1OP(=O)(S)OC3 (single isomer, unassigned) [Example 1.2, Cyclic (2′-F-2′-deoxynebularine-(3′→5′)-phosphorothioate-LNA-adenosine-(3′→5′)-phosphorothioate)] |
